Tests used:
[1] = target: T1, CFTR ΔF508 mutant (Homo sapiens, UniProt P13569, DEL508-508); assay: YFP-halide influx assay for the CFTR-ΔF508 mutation (384 well, CFBE41o- cells, FDSS/μCell); assay type: cell-based; conditions: forskolin 10.67 μM, fluorescence after 36 seconds, read-out: EC50 measured by YFP-halide influx assay for the CFTR-ΔF508
T1 construct: expressed in transfected cells; host or cells: CFBE41o- (adenoviral transduction)
Text: 6.2. YFP-Halide Influx Assay for the CFTR-ΔF508 Mutation
The YFP halide influx assay measures the functionality of the cystic fibrosis Transmembrane Conductance regulator (CFTR) channels in the cystic fibrosis bronchial epithelium cell line CFBE41o-. The assay is used to evaluate the capacity of compounds to increase the open probability of existing CFTR channels in the membrane. It makes use of the observation that the yellow fluorescent protein (YFP) variant YFP H148Q, I152L has its fluorescence substantially quenched by halide ions like Cl— and I— (Galietta et al., 2001; Nagai et al., 2002).
For this purpose, CFBE410-cells are seeded in 384 well plates (3000 CFBE cells/well). One day after seeding, the CFBE cells are transduced with adenoviral vectors that direct the expression of the CFTR ΔF508 mutant and of the YFP reporter. Cells are incubated at 27° C., 5% CO2 for 24 hours so as to allow for the proper folding and migration to the membrane of the CFTR channel or treated with a CFTR modulator during 24 h at 37° C.
(§1) The I— induced quenching of fluorescence is recorded on an immediately after injection of I— for 2 min on an FDSS/μCell (Hamamatsu). The capacity of a compound to increase the channel opening is directly correlated with the decrease in fluorescence, and is expressed as (1−(fluorescence after 36 seconds (F)/fluorescence before injection (F0))) and an EC50 can be derived from a (1−F/F0) vs compound concentration plot.

[2] = target: T2, CFTR G551D mutant (Homo sapiens, UniProt P13569, G551D); assay: YFP-halide influx assay for the CFTR-G551D mutation (HEK293 cells); assay type: cell-based; conditions: HEK293 cells expressing CFTR G551D and YFP reporter; forskolin 10.67 μM; read-out: EC50 measured by YFP-halide influx assay for the CFTR-G551D
T2 construct: expressed in transfected cells; host or cells: HEK293 (reverse transfection with plasmids)
T2 sequence (P13569 whole entry G551D): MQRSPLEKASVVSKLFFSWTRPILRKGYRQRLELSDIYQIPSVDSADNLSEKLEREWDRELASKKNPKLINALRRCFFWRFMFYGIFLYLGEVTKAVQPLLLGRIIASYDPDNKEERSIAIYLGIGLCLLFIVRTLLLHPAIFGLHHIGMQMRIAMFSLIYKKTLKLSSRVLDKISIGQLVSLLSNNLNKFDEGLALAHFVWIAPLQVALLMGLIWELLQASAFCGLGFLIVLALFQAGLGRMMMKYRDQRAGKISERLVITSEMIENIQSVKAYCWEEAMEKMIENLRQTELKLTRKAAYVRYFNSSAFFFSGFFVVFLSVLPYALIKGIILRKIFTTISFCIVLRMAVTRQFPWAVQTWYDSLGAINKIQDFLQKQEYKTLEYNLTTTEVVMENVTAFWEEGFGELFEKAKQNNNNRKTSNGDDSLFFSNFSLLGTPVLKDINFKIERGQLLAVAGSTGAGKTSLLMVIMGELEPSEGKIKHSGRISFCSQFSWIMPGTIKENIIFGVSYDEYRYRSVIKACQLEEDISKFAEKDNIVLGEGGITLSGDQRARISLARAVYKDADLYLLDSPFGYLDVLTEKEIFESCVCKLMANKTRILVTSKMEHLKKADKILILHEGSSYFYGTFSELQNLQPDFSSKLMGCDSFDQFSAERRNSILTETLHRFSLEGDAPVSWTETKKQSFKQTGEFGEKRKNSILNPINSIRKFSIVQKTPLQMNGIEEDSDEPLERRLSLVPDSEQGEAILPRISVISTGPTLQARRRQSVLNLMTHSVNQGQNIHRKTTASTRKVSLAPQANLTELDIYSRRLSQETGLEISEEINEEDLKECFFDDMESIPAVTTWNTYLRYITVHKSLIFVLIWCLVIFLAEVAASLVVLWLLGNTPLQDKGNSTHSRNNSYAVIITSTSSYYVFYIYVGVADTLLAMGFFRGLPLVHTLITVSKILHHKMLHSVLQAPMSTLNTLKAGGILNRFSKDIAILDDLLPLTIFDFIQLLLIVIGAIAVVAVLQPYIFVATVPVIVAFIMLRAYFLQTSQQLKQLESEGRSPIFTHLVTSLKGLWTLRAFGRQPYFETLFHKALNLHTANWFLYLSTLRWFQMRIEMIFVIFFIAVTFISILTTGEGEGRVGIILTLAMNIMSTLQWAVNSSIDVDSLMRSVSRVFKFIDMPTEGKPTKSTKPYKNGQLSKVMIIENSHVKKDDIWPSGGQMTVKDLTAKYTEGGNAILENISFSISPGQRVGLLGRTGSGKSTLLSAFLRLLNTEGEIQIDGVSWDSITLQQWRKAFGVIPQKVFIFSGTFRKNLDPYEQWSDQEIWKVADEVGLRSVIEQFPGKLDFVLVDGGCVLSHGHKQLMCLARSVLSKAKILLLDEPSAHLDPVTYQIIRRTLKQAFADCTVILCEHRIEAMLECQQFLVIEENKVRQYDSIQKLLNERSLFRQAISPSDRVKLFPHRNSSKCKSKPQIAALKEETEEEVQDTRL
Text: 6.3. YFP-Halide Influx Assay for the CFTR-G551D Mutation
The YFP halide influx assay measures the functionality of the cystic fibrosis Transmembrane Conductance regulator (CFTR) channels. The assay is used to evaluate the capacity of compounds to increase the channel opening of existing mutant CFTR channels in the membrane. It makes use of the observation that the yellow fluorescent protein (YFP) variant YFP H148Q, I152L, F47L has its fluorescence substantially quenched by halide ions like Cl^− and I^−. (Galietta et al., 2001)
For this purpose, HEK293-cells are seeded in 96 well plates. During seeding, the cells are reverse-transfected with plasmid vectors that direct the expression of the CFTR G551D mutant and of the YFP reporter. Cells are incubated at 37° C., 5% CO2 for 24 hours so as to allow for sufficient expression of the CFTR protein.
as §1, with “I^−-induced” for “I— induced”, “recorded” for “recorded on an”, “I^−” for “I—”, “7 seconds.” for “2 min on an FDSS/μCell (Hamamatsu).”, “7” for “36”

T1 sequence (P13569 with tags, fused parts or gaps DEL508-508): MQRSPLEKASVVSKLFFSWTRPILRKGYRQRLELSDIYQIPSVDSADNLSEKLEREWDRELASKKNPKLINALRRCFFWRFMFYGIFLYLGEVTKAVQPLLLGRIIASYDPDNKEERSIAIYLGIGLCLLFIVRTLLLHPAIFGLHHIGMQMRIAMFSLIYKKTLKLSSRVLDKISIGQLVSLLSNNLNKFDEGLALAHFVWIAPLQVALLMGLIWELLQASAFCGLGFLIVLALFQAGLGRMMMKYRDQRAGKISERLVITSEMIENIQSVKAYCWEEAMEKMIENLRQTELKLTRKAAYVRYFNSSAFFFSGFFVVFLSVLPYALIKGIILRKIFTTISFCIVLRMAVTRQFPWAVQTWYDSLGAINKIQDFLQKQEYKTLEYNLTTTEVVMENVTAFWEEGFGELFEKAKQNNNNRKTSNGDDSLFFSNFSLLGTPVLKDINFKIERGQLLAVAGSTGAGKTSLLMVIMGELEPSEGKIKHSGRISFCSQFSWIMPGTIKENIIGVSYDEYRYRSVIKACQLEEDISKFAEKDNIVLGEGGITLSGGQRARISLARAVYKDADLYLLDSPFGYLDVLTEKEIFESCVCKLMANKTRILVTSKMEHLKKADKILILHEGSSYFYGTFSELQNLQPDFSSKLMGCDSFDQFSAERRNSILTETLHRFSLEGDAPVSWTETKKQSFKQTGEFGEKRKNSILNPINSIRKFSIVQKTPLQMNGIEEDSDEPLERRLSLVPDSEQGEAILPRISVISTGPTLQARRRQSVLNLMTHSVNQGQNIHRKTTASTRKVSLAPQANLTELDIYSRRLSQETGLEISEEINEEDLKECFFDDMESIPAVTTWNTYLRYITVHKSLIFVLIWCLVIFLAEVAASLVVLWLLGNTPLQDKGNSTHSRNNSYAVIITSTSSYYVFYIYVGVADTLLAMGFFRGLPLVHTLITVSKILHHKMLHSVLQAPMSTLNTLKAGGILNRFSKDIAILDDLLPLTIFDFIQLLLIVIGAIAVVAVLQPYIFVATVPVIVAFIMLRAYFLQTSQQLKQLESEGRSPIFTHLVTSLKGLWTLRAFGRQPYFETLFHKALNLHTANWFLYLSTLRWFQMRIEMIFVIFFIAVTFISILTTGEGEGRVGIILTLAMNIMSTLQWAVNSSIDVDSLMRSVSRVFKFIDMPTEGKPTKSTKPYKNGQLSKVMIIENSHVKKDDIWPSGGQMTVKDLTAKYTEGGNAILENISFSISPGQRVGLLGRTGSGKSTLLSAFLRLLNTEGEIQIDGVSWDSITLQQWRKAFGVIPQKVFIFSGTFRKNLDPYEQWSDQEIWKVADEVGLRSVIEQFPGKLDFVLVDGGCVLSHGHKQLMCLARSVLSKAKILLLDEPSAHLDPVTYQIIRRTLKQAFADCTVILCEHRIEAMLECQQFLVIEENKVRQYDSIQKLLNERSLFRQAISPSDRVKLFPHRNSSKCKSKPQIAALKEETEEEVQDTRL

| Compound | EC50 [1] | EC50 [2] |
| --- | --- | --- |
| COC/C=C/c1c[nH]nc1C(=O)Nc1sc2c(c1C(N)=O)CC(C)(C)OC2(C)C [Compound 63, N-(3-carbamoyl-5,5,7,7-tetramethyl-4H-thieno[2,3-c]pyran-2-yl)-4-[(E)-3-methoxyprop-1-enyl]-1H-pyrazole-3-carboxamide] | 66.3 nM | 1190 nM |
| CC1(C)Cc2c(sc(NC(=O)C3CC3(F)F)c2C(N)=O)C(C)(C)O1 (stereo not shown) [Compound 48, 2-[(2,2-difluorocyclopropanecarbonyl)amino]-5,5,7,7-tetramethyl-4H-thieno[2,3-c]pyran-3-carboxamide] | 66.6 nM | 4570 nM |
| CC1(C)Cc2c(sc(NC(=O)c3ccn(CC(F)F)n3)c2C(N)=O)C(C)(C)O1 [Compound 126, N-(3-carbamoyl-5,5,7,7-tetramethyl-4H-thieno[2,3-c]pyran-2-yl)-1-(2,2-difluoroethyl)pyrazole-3-carboxamide] | 555 nM | 3330 nM |
| Cn1ccc(C(=O)Nc2sc3c(c2C(N)=O)CC(C)(C)OC3(C)C)n1 [Compound 119, N-(3-carbamoyl-5,5,7,7-tetramethyl-4H-thieno[2,3-c]pyran-2-yl)-1-methyl-pyrazole-3-carboxamide] | 159 nM | 2170 nM |
| CC(O)c1cc(C(=O)Nc2sc3c(c2C(N)=O)CC(C)(C)OC3(C)C)n[nH]1 (stereo not shown) [Compound 61, 5-(1-Hydroxy-ethyl)-1H-pyrazole-3-carboxylic acid (3-carbamoyl-5,5,7,7-tetramethyl-4,7-dihydro-5H-thieno[2,3-c]pyran-2-yl)-amide] | 188 nM | 4160 nM |
| CC1(C)Cc2c(sc(NC(=O)c3nn(C(F)F)cc3Cl)c2C(N)=O)C(C)(C)O1 [Compound 116, N-(3-carbamoyl-5,5,7,7-tetramethyl-4H-thieno[2,3-c]pyran-2-yl)-4-chloro-1-(difluoromethyl)pyrazole-3-carboxamide] | 88 nM | 1520 nM |
| CC1(C)Cc2c(sc(NC(=O)C(CO)CC3CC3)c2C(N)=O)C(C)(C)O1 (single isomer, unassigned) [Compound 96, 2-[[2-(cyclopropylmethyl)-3-hydroxy-propanoyl]amino]-5,5,7,7-tetramethyl-4H-thieno[2,3-c]pyran-3-carboxamide] | 97.4 nM | 3330 nM |
| CC(C)C(CO)C(=O)Nc1sc2c(c1C(N)=O)CC(C)(C)OC2(C)C (stereo not shown) [Compound 74, 2-[[2-(hydroxymethyl)-3-methyl-butanoyl]amino]-5,5,7,7-tetramethyl-4H-thieno[2,3-c]pyran-3-carboxamide] | 82.6 nM | 3330 nM |
| Cc1ccc(C(=O)Nc2sc3c(c2C(N)=O)CC(C)(C)OC3(C)C)cn1 [Compound 143, N-(3-carbamoyl-5,5,7,7-tetramethyl-4H-thieno[2,3-c]pyran-2-yl)-6-methyl-pyridine-3-carboxamide] | 153 nM | 2710 nM |
| CC1(C)Cc2c(sc(NC(=O)c3cc(C(C)(C)O)[nH]n3)c2C(N)=O)C(C)(C)O1 [Compound 64, N-(3-carbamoyl-5,5,7,7-tetramethyl-4H-thieno[2,3-c]pyran-2-yl)-5-(1-hydroxy-1-methyl-ethyl)-1H-pyrazole-3-carboxamide] | 167 nM | 2900 nM |
| CCOC(=O)C1CC1C(=O)Nc1sc2c(c1C(N)=O)CC(C)(C)OC2(C)C (stereo not shown) [Compound 62, 2-(3-Carbamoyl-5,5,7,7-tetramethyl-4,7-dihydro-5H-thieno[2,3-c]pyran-2-ylcarbamoyl)-cyclopropanecarboxylic acid ethyl ester] | 301 nM | 3330 nM |
| CC1(C)Cc2c(sc(NC(=O)c3ccn(COP(=O)(O)O)n3)c2C(N)=O)C(C)(C)O1 [Compound 93, [3-[(3-carbamoyl-5,5,7,7-tetramethyl-4H-thieno[2,3-c]pyran-2-yl)carbamoyl]pyrazol-1-yl]methyl dihydrogen phosphate] | 479 nM | 3330 nM |

These reach a lower EC50 [1]. Values come first.

| EC50 [1] | EC50 [2] | Compound |
| --- | --- | --- |
| 60 nM | 3330 nM | CC1(C)Cc2c(sc(NC(=O)CC(O)C3CC3)c2C(N)=O)C(C)(C)O1 (stereo not shown) [Compound 68, 2-[(3-cyclopropyl-3-hydroxy-propanoyl)amino]-5,5,7,7-tetramethyl-4H-thieno[2,3-c]pyran-3-carboxamide] |
| 40.9 nM | 1710 nM | CC1(C)Cc2c(sc(NC(=O)c3ccn(C(F)F)n3)c2C(N)=O)C(C)(C)O1 [Compound 114, N-(3-carbamoyl-5,5,7,7-tetramethyl-4H-thieno[2,3-c]pyran-2-yl)-1-(difluoromethyl)pyrazole-3-carboxamide] |
| 40.6 nM | 685 nM | CC1(C)Cc2c(sc(NC(=O)C3(C)CC(F)(F)C3)c2C(N)=O)C(C)(C)O1 [Compound 124, 2-[(3,3-difluoro-1-methyl-cyclobutanecarbonyl)amino]-5,5,7,7-tetramethyl-4H-thieno[2,3-c]pyran-3-carboxamide] |
| 34.4 nM | 1830 nM | CC1(C)Cc2c(sc(NC(=O)c3n[nH]cc3C3COCCO3)c2C(N)=O)C(C)(C)O1 (single isomer, unassigned) [Compound 112, N-(3-carbamoyl-5,5,7,7-tetramethyl-4H-thieno[2,3-c]pyran-2-yl)-4-[1,4-dioxan-2-yl]-1H-pyrazole-3-carboxamide] |
| 34.2 nM | 878 nM | CC1(C)Cc2c(sc(NC(=O)c3cscn3)c2C(N)=O)C(C)(C)O1 [Compound 128, N-(3-carbamoyl-5,5,7,7-tetramethyl-4H-thieno[2,3-c]pyran-2-yl)thiazole-4-carboxamide] |
| 23.6 nM | 3330 nM | CC(O)C1(C(=O)Nc2sc3c(c2C(N)=O)CC(C)(C)OC3(C)C)CC1 (stereo not shown) [Compound 79, 2-[[1-[1-hydroxyethyl]cyclopropanecarbonyl]amino]-5,5,7,7-tetramethyl-4H-thieno[2,3-c]pyran-3-carboxamide] |
| 20.8 nM | 570 nM | CC1(C)Cc2c(sc(NC(=O)c3n[nH]cc3C#N)c2C(N)=O)C(C)(C)O1 [Compound 73, N-(3-carbamoyl-5,5,7,7-tetramethyl-4H-thieno[2,3-c]pyran-2-yl)-4-cyano-1H-pyrazole-3-carboxamide] |
| 12 nM | 2160 nM | CC1(C)Cc2c(sc(NC(=O)[C@](C)(O)C(F)(F)F)c2C(N)=O)C(C)(C)O1 [Compound 152, 5,5,7,7-tetramethyl-2-[[(2S)-3,3,3-trifluoro-2-hydroxy-2-methyl-propanoyl]amino]-4H-thieno[2,3-c]pyran-3-carboxamide] |
| 9.91 nM | 3330 nM | CCC(O)C(=O)Nc1sc2c(c1C(N)=O)CC(C)(C)OC2(C)C (stereo not shown) [Compound 53, 2-(2-hydroxybutanoylamino)-5,5,7,7-tetramethyl-4H-thieno[2,3-c]pyran-3-carboxamide] |
| 8.74 nM | 3330 nM | CC(O)C1(C(=O)Nc2sc3c(c2C(N)=O)CC(C)(C)OC3(C)C)CC1 (stereo not shown) [Compound 59, 2-[[1-(1-hydroxyethyl)cyclopropanecarbonyl]amino]-5,5,7,7-tetramethyl-4H-thieno[2,3-c]pyran-3-carboxamide] |
| 6.39 nM | 3350 nM | CC(O)C1(C(=O)Nc2sc3c(c2C(N)=O)CC(C)(C)OC3(C)C)CC1 (stereo not shown) [Compound 78, 2-[[1-[1-hydroxyethyl]cyclopropanecarbonyl]amino]-5,5,7,7-tetramethyl-4H-thieno[2,3-c]pyran-3-carboxamide] |

From patent US9351955B2, “Compounds and pharmaceutical compositions thereof for the treatment of cystic fibrosis” (Galapagos NV, priority 2013, dated 2016)
